Source: patent US7371364B2, “Cyclic peptide and imaging compound compositions and uses for targeted imaging and therapy” (Board of Regents, The University of Texas System, priority 2003, dated 2008)

Columns and labels:
KS1767 tumors [1] = experiment: In vivo NIR imaging of subcutaneous KS1767 tumors with RGD imaging agent; design: species or system mice; details: for Tumor targeting / uptake in NIR image: subcutaneous KS1767 tumors, i.v. 6 nmol/mouse, image 24 hours after injection
From the text: Cy5.5-c(KRGDf; SEQ ID NO. 3) may be used in near infrared (NIR) imaging. Mice inoculated with KS1767 were used for in vivo NIR studies. The mice were four to six week-old athymic nude mice (18-22 g, Harlan Sprague Dawley, Inc. Indianapolis, Ind.) which were housed 5 per cage and fed with sterilized pellet chow (Harlan Sprague Dawley) and sterilized water. The animals were maintained in a pathogen-free mouse colony in the Department of Veterinary Medicine at the University of Texas M.D. Anderson Cancer Center. All experiments were performed in accordance with the guidelines of the Institutional Animal Care and Use Committee.
Tumor cells for use in the animals were harvested near confluence by incubation with 0.05% trypsin-EDTA. Cells were pelleted by centrifugation at 450×g for 5 minutes and resuspended in sterile PBS. […] cells/animal were implanted subcutaneously into the chest wall or hind legs of the mice. Imaging studies were performed when tumors reached 4-6 mm in average diameter.
(§1) In vivo fluorescence imaging was accomplished by illuminating the animal with light from a laser diode (35 mW) expanded to an approximate 8 cm diameter circular area. The fluorescent light re-emitted from the animal was collected by an image intensifier (model FS9910C, ITT Night Vision, Roanoke, Va.) lens-coupled to a CCD camera (model CH350, Photometrics, Tucson, Ariz.). The imaging was designed so that the field of view could be varied from 3×3 cm to over 12×12 cm by varying the image distance of the 50 mm lens used to focus the image onto the photocathode of the intensifier. The lens was fitted with a holographic notch-plus filter (660 nm center wavelength; Kaiser Optical Systems, Inc., Ann Arbor, Mich.) and a bandpass filter (710 nm center wavelength) to reject back-scattered and reflected excitation photons. Image acquisition was accomplished using V++ software (Digital Optics, Auckland, New Zealand) and the obtained images were stored in uncompressed tagged image file format (tiff). Data processing and analysis were accomplished using Matlab software (The MathWorks, Inc., Natick, Mass.). For all imaging sessions, the image acquisition parameters were kept constant, and each image required 800 ms of camera integration.
For dynamic in vivo fluorescence imaging, mice were anesthetized with an i.p. injection of 50 mg/kg pentobarbital, and a catheter was placed in the tail vein for i.v. injection of NIR dyes. A white-light image of the animal was obtained using a low-power lamp as a white light source with holographic and interference filters removed. Fluorescence images were then acquired as a function of time following administration of Cy5.5 (6 nmol per/mouse) or Cy5.5-c(KRGDf; SEQ ID NO. 3) (6 nmol per/mouse). […]

human tumor cells = experiment: In vitro tumor cell binding study (fluorescence microscopy); format: cell-based; details: SKBr-3, HT1080, MDA-MB-435, MDA-MB-468, U87 (PC-3 and U87 for the Tyr analogue); 37° C.
Procedure: All human tumor cell-lines were obtained from American Type Culture Collection (Rockville, Md.) and were maintained at 37° C. in a humidified atmosphere containing 5% CO2 in Dulbecco's Modified Eagle's Medium/Nutrient Mixture F-12 Ham (DMEM/F12) and 10% FBS (Gibco, Grand Island, N.Y.).
Cells were seeded on cover slips in 24-well plates (Becton Dickinson Labware, Franklin Lakes, N.J.) and incubated in DMEM/F12 culture medium (0.5 ml/well) overnight. Cy5.5 and Cy5.5-HWG polypeptide imaging agents were added into each well at the indicated concentrations. For the blocking study, doxycycline was added to the culture medium followed by the addition of Cy5.5-HWG polypeptide imaging agent 1 hour later. After an incubation period of 5-60 minutes at 37° C., cells were washed twice with PBS and incubated in a solution of Sytox Green in 95% ethyl alcohol (1 μM, Molecular Probe, Eugene, Oreg.) for 15 minutes to fix and stain cell nuclei. For staining of MMP expression, cells that were pretreated with Cy5.5-HWG polypeptide and stained with Sytox Green were incubated with anti-MMP antibody (Sigma) (1 mg/ml; 1:200 dilution) for 1 hour at room temperature. The cells were then washed and incubated with Texas Red conjugated go at anti-rabbit IgG (Molecular Probe, 4 μg/ml) at room temperature for 1 hour. Cells were washed again with PBS and the cover slips were mounted for microscopic examination using a DMR microscope (Leica Microsystems, Inc., Brannockburn, Ill.). The microscope was equipped with a 75W Xenon lamp, 775 nm/845 nm, 560 nm/645 nm, and 480 nm/535 nm (Excitation/emission) filters (Chroma Technology Corp., Brattleboro, Vt.), a Hamamatsu B/W Chilled CCD camera (Hamamatsu Photonics K.K., Hamamatsu City, Japan), and Image-Pro Plus 4.5.1 software (Media Cybernetics, Silver Spring, Md.). In the multiple staining images, Cy5.5, MMPs, and Sytox Green were pseudocolored red, green, and blue, respectively.

SKBr-3 tumors = experiment: In vivo NIR fluorescent imaging with HWG imaging agent; design: species or system mice; details: 4 days after i.v. injection, 15 nmol per mouse
Procedure: Four to six week-old athymic nude mice (18-22 g, Harlan Sprague Dawley, Inc., Indianapolis, Ind.) were housed 5 per cage with sterilized pet chow (Harlan Sprague Dawley) and sterilized water. Animals were maintained in a pathogen-free mouse colony in the Department of Veterinary Medicine at the University of Texas M.D. Anderson Cancer Center. All experiments were performed in accordance with the guidelines of the Institutional Animal Care and Use Committee. Tumor cells were harvested near confluence by incubation with 0.05% trypsin-EDTA. Cells were pelleted by centrifugation at 450×g for 5 minutes and resuspended in sterile PBS. Cells (2-3×10^6/animal) were implanted subcutaneously into the chest wall or the hind legs of the mice. Human PC-3 prostate tumors were obtained by intratibia injection of PC-3 cells into male nude mice. Human U87 glioma tumors were obtained by intracranial injection.
In vivo fluorescence imaging was accomplished by illuminating the animal with light from a laser diode (785 nm, 80 mW for IGC; 660 nm, 35 mW for Cy 5.5 dyes) expanded to an approximate 8 cm diameter circular area. The re-emitted fluorescent light was collected by an image intensifier (model FS9910C, ITT Night Vision, Roanoke, Va.) lens-coupled to a CCD camera (model CH350, Photometrics, Tucson, Ariz.). The imaging was designed so that the field of view could be varied from 3×3 cm to over 12×12 cm by varying the image distance of the 50 mm lens used to focus the image onto the photocathode of the intensifier. The lens was fitted with a holographic notch-plus filter (785 nm center wavelength for ICG and 660 nm center wavelength for Cy5.5 dyes; Kaiser Optical Systems, Inc., Ann Arbor, Mich.) and a bandpass filter (830 nm center wavelength for ICG, 710 nm center wavelength for Cy5.5 dyes) to reject back-scattered and reflected excitation photons. Image acquisition was accomplished using V++ software (Digital Optics, Auckland, New Zealand) and obtained images were stored in uncompressed tagged image file format (tiff). Data processing and analysis was accomplished using Matlab software (The Math Works, Inc., Natick, Mass.).

[2] = system: integrin-negative M21-L melanoma; experiment: In vivo NIR imaging of human melanoma xenograft, integrin-negative; design: species or system mice
From the text: as §1

KS1767 cells = format: cell-based; details: 1 h
Procedure: A Cell Adhesion Assay was additionally performed. KS1767 cells were seeded in DMEM/F12 culture medium supplemented with 10% fetal bovine serum for 24 hr. Cells (1×10^5) with different concentrations of c(KRGDf; SEQ ID NO. 3) or Cy5.5-c(KRGDf; SEQ ID NO. 3) were added to vitronectin-coated microliter wells under serum-free conditions and incubated at 37° C. for 1 hr. After washing steps, the bound cells were stained with 5% crystal violet, followed by addition of 0.1M HCl to each well. The concentrations of crystal violet were determined by UV/V is absorption at 627 nm. IC50 values were estimated from the dose-activity curves.

[3] = system: integrin-positive M21 melanoma; experiment: In vivo NIR imaging of human melanoma xenograft, integrin-positive; design: species or system mice
From the text: as §1

KS1767 tumors [4] = experiment: Dynamic in vivo NIR imaging, tumor ROI versus normal muscle ROI; design: species or system mice
Procedure: For dynamic in vivo fluorescence imaging, mice were anesthetized with an i.p. injection of 50 mg/kg pentobarbital, and a catheter was placed in the tail vein for i.v. injection of NIR dyes. A white-light image of the animal was obtained using a low-power lamp as a white light source with holographic and interference filters removed. Fluorescence images were then acquired as a function of time following administration of Cy5.5 (6 nmol per/mouse) or Cy5.5-c(KRGDf; SEQ ID NO. 3) (6 nmol per/mouse). For blocking studies, c(KRGDf; SEQ ID NO. 3) (600 nmol/mouse) was injected intravenously at 1 hr and 24 hr prior to the injection of Cy5.5-c(KRGDf; SEQ ID NO. 3). The acquisition time was 800 ms. Images were obtained every 6 seconds (s) for up to 20 minutes (min) following injection of each imaging agent. Each mouse was imaged again 24 hr after contrast injection.
Two regions of interest (ROI) were selected for quantitative analyses. One ROI was located entirely within the circumference of the tumor, and the other, of approximate equivalent size, defined a symmetric region of normal tissue located opposite the tumor site. (See FIG. 32A.) Utilizing Matlab software, the mean of the fluorescence intensity within each ROI was computed for every fluorescence image acquired. Data were acquired from the tumor ROI. (See FIG. 32B.) Data were acquired from normal muscle ROI. […] The symbols denote experimental measurements while the solid line denotes the corresponding least-squares fit. Animals were injected with Cy5.5-c(KRGDf; SEQ ID NO. 3) alone (6 nmol) (□), or Cy5.5-cc(KRGDf; SEQ ID NO. 3) 1 hr (∘) and 24 hr (⋄) after the injection of unconjugated c(KRGDf; SEQ ID NO. 3) peptide (600 nmol).

αvβ3 integrin = target: T1, αvβ3 integrin (Homo sapiens, UniProt P05106+P06756); experiment: In vitro blockage study of Cy5.5-c(KRGDf) binding to KS1767 cells (fluorescence microscopy); format: cell-based
T1 construct: endogenous in cells; host or cells: KS1767 sarcoma cells
Procedure: KS1767 sarcoma cells were maintained at 37° C. in a humidified atmosphere containing 5% CO2 in Dulbecco's Modified Eagle's Medium/Nutrient Mixture F-12 Ham (DMEM/F12) and 10% FBS (Gibco, Grand Island, N.Y.).
Cells were seeded on cover slips in 24-well plates (Becton Dickinson Labware, Franklin Lakes, N.J.) and incubated in DMEM/F12 culture medium (0.5 ml/well) overnight. Unconjugated c(KRGDf; SEQ ID NO. 3) was added to the culture medium at various concentrations. Cy5.5-c(KRGDf; SEQ ID NO. 3) was added one hour later to each well at a concentration of 6 μM. Cells were washed twice with PBS and incubated in a solution of Sytox Green in 95% ethyl alcohol (1 μM, Molecular Probe, Eugene, Oreg.) for 15 minutes to fix and stain cell nuclei. Cells were washed again with PBS and the cover slips were mounted for microscopic examination using a DMR microscope (Leica Microsystems Inc., Bannockburn, Ill.). The microscope was equipped with a 75W Xenon lamp, 775 nm/845 nm, 560 nm/645 nm, and 480 nm/535 nm (Excitation/emission) filters (Chroma Technology Corp., Brattleboro, Vt.), a Hamamatsu B/W Chilled CCD Camera (Hamamatsu Photonics K.K., Hamamatsu City, Japan), and an Image-Pro Plus 4.5.1 software (Media Cybernetics, Silver Spring, Md.). In the multiple staining images, Cy5.5 was pseudocolored red and Sytox Green was green.

T1 sequence (P06756 31-889 limits assumed): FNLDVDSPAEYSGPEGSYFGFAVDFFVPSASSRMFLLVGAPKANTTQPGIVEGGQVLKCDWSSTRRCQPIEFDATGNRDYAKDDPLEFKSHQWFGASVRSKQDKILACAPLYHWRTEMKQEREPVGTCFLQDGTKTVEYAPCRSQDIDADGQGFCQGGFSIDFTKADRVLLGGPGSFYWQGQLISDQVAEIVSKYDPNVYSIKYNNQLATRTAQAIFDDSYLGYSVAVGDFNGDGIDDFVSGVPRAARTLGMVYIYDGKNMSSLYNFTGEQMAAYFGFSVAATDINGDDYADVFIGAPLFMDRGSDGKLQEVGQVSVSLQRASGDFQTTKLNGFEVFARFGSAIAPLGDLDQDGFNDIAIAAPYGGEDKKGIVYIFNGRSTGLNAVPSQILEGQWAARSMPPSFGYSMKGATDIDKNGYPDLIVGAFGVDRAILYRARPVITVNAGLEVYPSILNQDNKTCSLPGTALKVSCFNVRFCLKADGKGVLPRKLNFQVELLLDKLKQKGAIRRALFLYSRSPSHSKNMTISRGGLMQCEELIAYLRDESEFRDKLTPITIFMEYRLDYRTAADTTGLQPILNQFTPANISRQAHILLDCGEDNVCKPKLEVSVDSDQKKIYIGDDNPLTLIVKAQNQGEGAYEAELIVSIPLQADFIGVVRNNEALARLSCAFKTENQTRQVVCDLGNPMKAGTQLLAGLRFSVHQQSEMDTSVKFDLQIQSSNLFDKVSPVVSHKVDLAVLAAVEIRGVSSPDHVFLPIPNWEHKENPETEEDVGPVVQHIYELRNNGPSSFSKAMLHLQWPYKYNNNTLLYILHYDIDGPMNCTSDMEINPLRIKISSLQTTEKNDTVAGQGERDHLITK
T1 sequence (P06756 891-1048 partner limits assumed): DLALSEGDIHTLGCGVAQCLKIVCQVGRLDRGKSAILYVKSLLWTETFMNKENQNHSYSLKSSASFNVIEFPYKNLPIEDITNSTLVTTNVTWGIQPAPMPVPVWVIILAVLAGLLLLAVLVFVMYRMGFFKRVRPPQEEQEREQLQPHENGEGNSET
T1 sequence (P05106 27-788): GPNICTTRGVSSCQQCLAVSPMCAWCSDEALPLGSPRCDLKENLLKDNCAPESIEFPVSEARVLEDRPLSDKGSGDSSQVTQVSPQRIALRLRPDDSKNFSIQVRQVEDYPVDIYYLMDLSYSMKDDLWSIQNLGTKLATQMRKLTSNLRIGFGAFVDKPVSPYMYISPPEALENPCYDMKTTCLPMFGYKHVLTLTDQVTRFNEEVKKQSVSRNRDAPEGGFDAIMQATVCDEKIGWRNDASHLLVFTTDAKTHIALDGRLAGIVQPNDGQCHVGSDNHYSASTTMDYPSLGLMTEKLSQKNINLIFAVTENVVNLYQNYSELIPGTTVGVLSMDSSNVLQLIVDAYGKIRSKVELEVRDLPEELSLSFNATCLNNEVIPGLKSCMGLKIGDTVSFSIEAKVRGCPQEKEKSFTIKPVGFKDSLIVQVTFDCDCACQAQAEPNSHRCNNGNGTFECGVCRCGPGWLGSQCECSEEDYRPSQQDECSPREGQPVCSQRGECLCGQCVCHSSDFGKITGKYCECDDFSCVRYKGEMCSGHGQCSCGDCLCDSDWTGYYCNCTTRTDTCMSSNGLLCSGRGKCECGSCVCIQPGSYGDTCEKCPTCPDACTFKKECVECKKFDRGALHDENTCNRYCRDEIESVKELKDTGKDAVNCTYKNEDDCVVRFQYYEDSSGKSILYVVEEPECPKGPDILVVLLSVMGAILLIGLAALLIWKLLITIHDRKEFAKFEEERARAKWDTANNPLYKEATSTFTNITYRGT

Cy5.5 [reference compound]
Tumor targeting / uptake in NIR image (KS1767 tumors [1]): almost no optical activity uptake | Binding to tumor cells (human tumor cells): did not display significant binding | Fluorescent signal in tumor (SKBr-3 tumors): minimal fluorescence

CC1(C)C(=CC=C2CCCC(C=CC3=[N+](CCCCS(=O)(=O)O)c4ccc(S(=O)(=O)[O-])cc4C3(C)C)=C2Oc2ccc(S(=O)(=O)O)cc2)N(CCCCCC(=O)NCCCC[C@@H]2NC(=O)[C@@H](Cc3ccccc3)NC(=O)[C@H](CC(=O)O)NC(=O)CNC(=O)[C@H](CCCNC(=N)N)NC2=O)c2ccc(S(=O)(=O)O)cc21 [IRDye800-c(KRGDf; SEQ ID NO. 3)]
Visualization of tumor in NIR image ([2]; M21-L melanoma, 24 hr after i.v. injection, 3 nmol/mouse): not | Tumor-to-background ratio ([2]; mice with M21-L tumors, from fluorescence intensity in region-of-interest): 1.1 | IC50 (KS1767 cells): ~2.58 µM | Visualization of tumor in NIR image ([3]; M21 melanoma, 24 hr after i.v. injection, 3 nmol/mouse): clearly visualized | Tumor-to-background ratio ([3]; mice with M21 tumors, from fluorescence intensity in region-of-interest): 1.7

N=C(N)NCCC[C@@H]1NC(=O)[C@H](CCCCN)NC(=O)[C@@H](Cc2ccccc2)NC(=O)[C@H](CC(=O)O)NC(=O)CNC1=O [c(KRGDf; SEQ ID NO. 3), cyclo(Lys-Arg-Gly-Asp-phe), reference compound]
Effect of pretreatment on uptake of fluorophores in KS1767 tumors (KS1767 tumors [1]; 100-fold c(KRGDf) injected 1 hour before Cy5.5-c(KRGDf)): blocked the uptake | Effect of preinjection on uptake of Cy5.5-c(KRGDf) in the tumor (KS1767 tumors [4]; c(KRGDf) 600 nmol, interval between injections 1 hr): blocked the uptake | Blockage of Cy5.5-c(KRGDf) binding to KS1767 cells (αvβ3 integrin; unconjugated peptide added one hour before 6 μM Cy5.5-c(KRGDf)): dose-dependent blockage | IC50 (KS1767 cells): ~2.47 µM

CC[N+]1=C(C=CC=CC=C2N(CCCCCC(=O)NCCCC[C@@H]3NC(=O)[C@@H](Cc4ccccc4)NC(=O)[C@H](CC(=O)O)NC(=O)CNC(=O)[C@H](CCCNC(=N)N)NC3=O)c3ccc4c(S(=O)(=O)O)cc(S(=O)(=O)O)cc4c3C2(C)C)C(C)(C)c2c1ccc1c(S(=O)(=O)[O-])cc(S(=O)(=O)O)cc21 [Cy5.5-c(KRGDf; SEQ ID NO. 3)]
Localization in excised tumor and adjacent muscle tissue (fluorescence microscopy) (KS1767 tumors [1]; ex vivo, KS1767 tumor excised 48 hr after i.v. injection): localized to the tumor, but not to the muscle cells | Tumor targeting / uptake in NIR image (KS1767 tumors [1]): clearly showed targeting | Rate of uptake in KS1767 tumors compared with muscle (KS1767 tumors [4]; 6 nmol/mouse i.v., dynamic imaging up to 20 min): faster | Rate of uptake in the tumor after preinjection of c(KRGDf) (KS1767 tumors [4]; c(KRGDf) 600 nmol, interval between injections 24 hr): partially recovered | In vitro binding to αvβ3 (αvβ3 integrin; KS1767 cells, 6 μM imaging agent): demonstrated | IC50 (KS1767 cells): ~1.11 µM
